We go through eight molecules from ChEMBL document CHEMBL1132736, “Identification of optimal anion spacing for anti-HIV activity in a series of cosalane tetracarboxylates” (Bioorg Med Chem Lett, 2000).

Details in all cases: Homo sapiens
Test [1] deals with CEM-SS. As to the kind of experiment: Effective concentration of compound required to reduce the cytopathic effect of HIV-1RF in CEM-SS cells by 50%. Type of test: functional, cell-based. (In general: Protection from cytopathic effect is a common read-out in antiviral testing.)
Test [2] has as its system CEM-SS. As to the kind of experiment: Concentration of compound required to reduce the cellular viability in uninfected CEM-SS cells by 50%. It counts as functional.
Test [3] has as its system MT4. As to the kind of experiment: Concentration of compound required to reduce the cellular viability in uninfected MT-4 cells by 50%. It counts as functional.
For test [4], the system named is MT4. As to the kind of experiment: Effective concentration of compound required to reduce the cytopathic effect of HIV-2ROD in MT-4 cells by 50%. Type of test: functional, cell-based.
Test [5] relates to MT4. As to the kind of experiment: Effective concentration of compound required to reduce the cytopathic effect of HIV-1 IIIB in MT-4 cells by 50%. Type of test: functional, cell-based.

As a reminder, the EC50 is the concentration needed to bring the measured effect to its halfway point. Low values mean a more potent agent, high ones a less potent agent. As usually defined, the CC50 is the concentration at which the toxic effect on the cells reaches its halfway point. Higher therefore signals lower toxicity to the cells. For `CC(C)CCCC(C)[C@H]1CC[C@H]2[C@@H]3CCC4C[C@@H](CCC=C(c5cc(Cl)c(OCc6ccc(CC(=O)O)cc6)c(C(=O)O)c5)c5cc(Cl)c(OCc6ccc(CC(=O)O)cc6)c(C(=O)O)c5)CC[C@]4(C)[C@H]3CC[C@]12C` (stereo not given in full), the EC50 turned out to be 1.78 µM in the test with CEM-SS [1], 124 µM in the test on MT4 [4] and 4.4 µM in the test on MT4 [5]. Also, the results for the 50% cytotoxic concentration (CC50) in the test on CEM-SS [2] and in the test with MT4 [3] were 133 µM and greater than 125 µM, respectively.

In the case of `CC(C)CCCC(C)[C@H]1CC[C@H]2[C@@H]3CCC4C[C@@H](CCC=C(c5cc(Cl)c(OCc6ccc(-c7cccc(C(=O)O)c7)cc6)c(C(=O)O)c5)c5cc(Cl)c(OCc6ccc(-c7cccc(C(=O)O)c7)cc6)c(C(=O)O)c5)CC[C@]4(C)[C@H]3CC[C@]12C` (stereo not given in full), the EC50 in the test on CEM-SS [1] was 6.11 µM; in the test on MT4 [4], greater than 95 µM; in the test with MT4 [5] it was 14.5 µM. The values for the CC50 with CEM-SS [2] and with MT4 [3] were greater than 200 µM and 95 µM, respectively.

As for `CC(C)CCCC(C)[C@H]1CC[C@H]2[C@@H]3CCC4C[C@@H](CCC=C(c5cc(Cl)c(O)c(C(=O)O)c5)c5cc(Cl)c(O)c(C(=O)O)c5)CC[C@]4(C)[C@H]3CC[C@]12C` (stereo not given in full), the CC50 in the test with CEM-SS [2] and in the test on MT4 [3] was greater than 200 µM each time.

Turning to `CC(C)CCCC(C)[C@H]1CC[C@H]2[C@@H]3CCC4C[C@@H](CCC=C(c5cc(Cl)c(OCc6ccc(C(=O)O)cc6)c(C(=O)O)c5)c5cc(Cl)c(OCc6ccc(C(=O)O)cc6)c(C(=O)O)c5)CC[C@]4(C)[C@H]3CC[C@]12C` (stereo not given in full), the figures for the CC50 with CEM-SS [2] and in the test on MT4 [3] were 72 µM and 88 µM, respectively. For the same molecule, a half-maximal effect in the test on MT4 [4] (EC50) was put at 22 µM.

Turning to `CC(C)CCCC(C)[C@H]1CC[C@H]2[C@@H]3CCC4C[C@@H](CCC=C(c5cc(Cl)c(OCc6cccc(C(=O)O)c6)c(C(=O)O)c5)c5cc(Cl)c(OCc6cccc(C(=O)O)c6)c(C(=O)O)c5)CC[C@]4(C)[C@H]3CC[C@]12C` (stereo not given in full), the CC50 was greater than 316 µM with CEM-SS [2] and 29 µM in the test on MT4 [3].

On to `CC(C)CCCC(C)[C@H]1CC[C@H]2[C@@H]3CCC4C[C@@H](CCC=C(c5cc(Cl)c(OCc6ccccc6C(=O)O)c(C(=O)O)c5)c5cc(Cl)c(OCc6ccccc6C(=O)O)c(C(=O)O)c5)CC[C@]4(C)[C@H]3CC[C@]12C` (stereo not given in full), for which the concentration giving a half-maximal response (EC50) with CEM-SS [1] worked out at 39.8 µM. For the same molecule, the CC50 is greater than 316 µM in the test on CEM-SS [2] and 37 µM with MT4 [3].

Take `CC(C)CCCC(C)[C@H]1CC[C@H]2[C@@H]3CCC4C[C@@H](CCC=C(c5cc(Cl)c(OCc6ccc(-c7ccc(C(=O)O)cc7)cc6)c(C(=O)O)c5)c5cc(Cl)c(OCc6ccc(-c7ccc(C(=O)O)cc7)cc6)c(C(=O)O)c5)CC[C@]4(C)[C@H]3CC[C@]12C` (stereo not given in full): the results for the EC50 in the test with CEM-SS [1], with MT4 [4] and with MT4 [5] were greater than 100 µM, greater than 80 µM and greater than 80 µM, respectively. The figures for the CC50 in the test on CEM-SS [2] and in the test on MT4 [3] were greater than 100 µM and 80 µM, respectively.

Turning to `CC(C)CCCC(C)[C@H]1CC[C@H]2[C@@H]3CCC4C[C@@H](CCC=C(c5cc(Cl)c(OCc6ccc(-c7ccccc7C(=O)O)cc6)c(C(=O)O)c5)c5cc(Cl)c(OCc6ccc(-c7ccccc7C(=O)O)cc6)c(C(=O)O)c5)CC[C@]4(C)[C@H]3CC[C@]12C` (stereo not given in full), the EC50 is 5.17 µM in the test with CEM-SS [1], greater than 125 µM in the test with MT4 [4] and 12.1 µM with MT4 [5]. In addition, the results for the CC50 with CEM-SS [2] and in the test on MT4 [3] were greater than 200 µM and greater than 125 µM, respectively.
